Test results: BindingDB's records for doi:10.1021/acs.jnatprod.3c01041 (National Cancer Institute, 2024)

How the values were obtained:
Paired box protein Pax-3 [1] = target: T1, Paired box protein Pax-3 (Homo sapiens, UniProt P23760); assay: Inhibition of PAX3-FOXO1 (unknown origin) fusion protein expressed human Rh4 cells cotransfected with ALK-Luc incubated for 24 hrs by Steady-Glo luciferase assay
Paired box protein Pax-3 [2] = target: T1, Paired box protein Pax-3; assay: Inhibition of PAX3-FOXO1 (unknown origin) fusion protein expressed human Rh4 cells cotransfected with CMV-Luc incubated for 24 hrs by Steady-Glo luciferase assay

T1 sequence (P23760 whole entry, the tested form may be a part): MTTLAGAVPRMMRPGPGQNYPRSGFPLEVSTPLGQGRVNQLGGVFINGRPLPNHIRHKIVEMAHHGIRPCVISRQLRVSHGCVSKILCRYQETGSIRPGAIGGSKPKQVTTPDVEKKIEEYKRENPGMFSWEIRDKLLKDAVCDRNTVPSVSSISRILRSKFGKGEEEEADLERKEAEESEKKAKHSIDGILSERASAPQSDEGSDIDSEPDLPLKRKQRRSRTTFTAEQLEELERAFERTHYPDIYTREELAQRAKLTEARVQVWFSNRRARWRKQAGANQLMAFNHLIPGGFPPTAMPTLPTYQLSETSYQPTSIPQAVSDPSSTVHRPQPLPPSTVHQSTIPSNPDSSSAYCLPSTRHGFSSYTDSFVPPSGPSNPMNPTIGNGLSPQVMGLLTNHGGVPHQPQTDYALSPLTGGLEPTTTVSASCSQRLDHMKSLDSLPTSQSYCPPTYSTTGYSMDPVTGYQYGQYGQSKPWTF

Compound | IC50 (Paired box protein Pax-3 [1]) [µM] | IC50 (Paired box protein Pax-3 [2]) [µM]
COC(=O)c1cc2c(OS(=O)(=O)CCNc3c4c(cn(C)c3=O)C(=O)C(OC)=C(C)C4=O)c(C)c(OC)c(O)c2c[n+]1C | 6.4 | 11.8
COC1=C(C)C(=O)c2c(cn(C)c(=O)c2NCCS(=O)(=O)Oc2c(C)c(OC)c(O)c3c[n+](C)c(C(=O)O)cc23)C1=O | 5.7 | 9.8
COC1=C(C)C(=O)c2c(cn(C)c(=O)c2NCCS(=O)(=O)Oc2c(C)c(OC)c(O)c3c[n+](C)ccc23)C1=O | 5.4 | 9.4
